Test results taken from article PMC7767166, “Imidazole and Imidazolium Antibacterial Drugs Derived from Amino Acids” (Pharmaceuticals, 2020).
Several values for one entry are separate records, joined by “and”; a condition that tells them apart may be missing. Identical values can stand only once. Like-named read-outs stand apart in the source and are kept apart here.

What was measured:
[1] = tested on: Escherichia coli DH5α; assay: Bacterial cell viability assay (Resazurin), MBC; format: cell-based; settings: read-out: E. coli MBC
Procedure: (§1) The in vitro antibacterial activities of the synthesized compounds were examined against E. coli and B. subtilis. Bacteria were incubated in culture media with varying concentrations of the examined compound and the antibacterial properties were determined by observation of the optical density at 560 nm (bacteriostatic activity) and by the Resazurin cell viability assay (bactericidal activity). The corresponding minimal bactericidal concentration (MBC) and minimum inhibitory concentration (MIC) values that were obtained are summarized in Table 1 (please refer to Table S1 for MIC and MBC values in μM).
(§2) Two bacterial strains were used in the antibacterial assays: Escherichia coli DH5α as a Gram-negative model and Bacillus subtilis 1904-E as a Gram-positive model. Both bacterial strains were donated to our laboratory and can be provided on request by contacting the corresponding authors. Both bacterial strains were incubated at 37 °C and the pre-inoculum incubation time was of 24 h. Liquid Luria-Bertani (LB) medium was used for E. coli DH5α and nutrient broth (NB) for B. subtilis.
(§3) The bacteria cell bank suspensions were thawed and inoculated in the appropriate liquid broth for 24 h at 37 °C with mild agitation. A dilution from these culture solutions was used for the following tests, corresponding to an inoculum of 1 × 10^7 CFU/mL. Stock solutions of all the tested compounds were prepared in DMSO at a concentration of 100 mg/mL, aliquoted, and stored at −20 °C.
(§4) (B) Bacterial cell viability assay: Cell viability was analyzed using a Resazurin (7-Hydroxy-3H-phenoxazin-3-one 10-oxide) assay in a 96-well plate. Once the bacterial cultures of growth inhibition assay had been grown for a total of 24 h, 25 μL of a 0.1 mg/mL resazurin (prepared in LB or NB medium) were added to each well and incubated in the dark at 37 °C for 1 h under stirring. Resazurin has a blue color at the testing pH and turns pink when reduced by the viable bacteria to resorufin. Therefore, pink wells indicate metabolizing bacteria, while blue wells are indicative of bacteria that have lost their ability to convert resazurin to resorufin. Different controls were made in order to corroborate the MBC value obtained by the resazurin assay. The change of color was confirmed at 1, 4, and 24 h after its addition. The viability of bacteria was verified (either confirmed or rejected) by the colony plate-counting method, by seeding 10 μL from the cell culture onto tryptone soy agar plates and observing the presence or absence of bacterial growth after 24 h at 37 °C.

[2] = tested on: Bacillus subtilis 1904-E; assay: Bacterial cell viability assay (Resazurin), MBC; format: cell-based; settings: read-out: B. subtilis MBC
Procedure: as §1, §2, §3, §4

[3] = tested on: HEK-293 cells; assay: Cell proliferation assay for cytotoxicity (MTT); format: cell-based, human; settings: 2 days of incubation
Procedure: Human embryonic kidney cells, HEK-293, were chosen as a cell model to evaluate the cytotoxicity of the compounds. The HEK-293 cells were incubated in the cell culture medium with varying concentrations of the examined compound and the impact of treatment was measured using the MTT cell viability assay.
Cell culture media for cytotoxicity studies were purchased from Gibco (Grand Island, NY, USA). Fetal bovine serum (FBS) was obtained from HyClone (UT, USA). Supplements and other chemicals not listed in this section were obtained from Sigma Chemical Co. (St. Louis, MO, USA). Plastics for cell culture were supplied by Thermo Scientific BioLite (Madrid, Spain). All tested compounds were dissolved in DMSO at a concentration of 10 mM and stored at −20 °C until use. HEK-293 cell lines were maintained in Dulbecco’s modified Eagle’s medium (DMEM) containing glucose (1 g/L), glutamine (2 mM), penicillin (50 μg/mL), streptomycin (50 μg/mL), and amphotericin B (1.25 μg/mL) supplemented with 10% FBS.
In 96-well plates, 3 × 10^3 HEK-293 cells per well were seeded and incubated with serial dilutions of the tested compounds (from 200 to 0.2 μM) to a total volume of 100 μL of their growth media. The 3-(4,5-dimethylthiazol-2-yl)-2,5-diphenyltetrazolium bromide (MTT; Sigma Chemical Co.) dye reduction assay in 96-well microplates was used, as previously described. After 2 days of incubation (37 °C, 5% CO2 in a humid atmosphere), 10 μL of MTT (5 mg/mL in phosphate-buffered saline, PBS) was added to each well, and the plate was incubated for a further 3 h (37 °C). The supernatant was discarded and replaced by 100 µL of DMSO to dissolve formazan crystals. The absorbance was then read at 540 nm by Multiskan^TM FC microplate reader. For all concentrations of compound, cell viability was expressed as the percentage of the ratio between the mean absorbance of treated cells and the mean absorbance of untreated cells. Three independent experiments were performed, and the IC50 values (i.e., concentration half inhibiting cell proliferation) were graphically determined using GraphPad Prism 4 software.

[4] = tested on: E. coli and B. subtilis; assay: MBC to MIC ratio (bactericidal vs bacteriostatic); format: cell-based; settings: from exact MBC and MIC values of Table 1
Description: The Gram-positive cell wall is composed of a thick, multilayered peptidoglycan sheath outside of the cytoplasmic membrane, while the Gram-negative cell wall is composed of an outer membrane linked by lipoproteins to thin, mainly single-layered peptidoglycan. The peptidoglycan is located within the periplasmic space that is created between the outer and inner membranes. […] Compounds with MBC/MIC >4 are considered to be bacteriostatic. In all the cases in which we could obtain exact MBC and MIC values (Table 1, entries 2, 3, 8 and 9), their ratio was equal to or minor than four.

[5] = Solubility in media of the fluorescence studies; format: physicochemical; settings: water and 1/1 water/bacterial cell culture medium
Procedure: Fluorescence studies were carried out using MilliQ® water and 1/1 MilliQ® water/bacterial cell culture medium, because with the pure cell culture medium, a strong broad fluorescence emission band was observed precluding an accurate analysis. […] The corresponding CACs obtained in water and in the 1/1 mixture of water/bacterial cell culture medium by fluorescence are shown in Table 2.

[6] = Resazurin after 24 h growth, LB medium, minimum of three experiments
[7] = mode of at least three experiments
[8] = 24 h, Resazurin after 24 h growth, nutrient broth, minimum of three experiments

CCCCCCCCCCCCNC(=O)[C@H](C(C)C)n1ccnc1 [Compound 1a]
MBC [1, 6]: > 2000 µg/mL | MBC [1, 7]: > 6000 µM | MBC [2, 8]: ≤ 16 µg/mL | MBC [2, 7]: 48 µM | IC50 ([3]; Homo sapiens, HEK293, 48 h): 9.6 µM and 3.2 µg/mL

CCCCCCCCCCCCNC(=O)[C@H](C(C)C)n1cc[n+](Cc2ccccc2)c1 [Compound 1b]
bactericidal or bacteriostatic (MBC to MIC ratio equal to or less than four = bactericidal) [4]: true bactericidal activity | MBC [1, 6]: 256 µg/mL | MBC [1, 7]: 581 µM | MBC [2, 8]: ≤ 16 µg/mL | MBC [2, 7]: 18 µM | IC50 ([3]; Homo sapiens, HEK293, 48 h): 1.8 µM and 0.8 µg/mL

CCCCCCCCCCCCNC(=O)[C@H](C(C)C)n1cc[n+](Cc2cccc(C[n+]3ccn([C@@H](C(=O)NCCCCCCCCCCCC)C(C)C)c3)c2)c1 [Compound 1c]
bactericidal or bacteriostatic (MBC to MIC ratio equal to or less than four = bactericidal) [4]: true bactericidal activity | MBC [1, 6]: 256 µg/mL | MBC [1, 7]: 269 µM | MBC [2, 8]: 32 µg/mL | MBC [2, 7]: 34 µM | IC50 ([3]; Homo sapiens, HEK293, 48 h): 19 µM and 18 µg/mL

CCCCNC(=O)[C@H](C(C)C)n1ccnc1 [Compound 2a]
MBC [1, 6]: > 2000 µg/mL | MBC [1, 7]: > 9000 µM | MBC [2, 8]: > 2000 µg/mL | MBC [2, 7]: > 9000 µM | IC50 ([3]; Homo sapiens, HEK293, 48 h): > 45 µg/mL

CCCCNC(=O)[C@H](C(C)C)n1cc[n+](Cc2ccccc2)c1 [Compound 2b]
MBC [1, 6]: > 2000 µg/mL | MBC [1, 7]: > 5000 µM | MBC [2, 8]: > 1000 µg/mL | MBC [2, 7]: 2590 µM | melting point: 33 °C | IC50 ([3]; Homo sapiens, HEK293, 48 h): > 79 µg/mL

CCCCNC(=O)[C@H](C(C)C)n1cc[n+](Cc2cccc(C[n+]3ccn([C@@H](C(=O)NCCCC)C(C)C)c3)c2)c1 [Compound 2c]
MBC [1, 6]: > 2000 µg/mL | MBC [1, 7]: > 2900 µM | MBC [2, 8]: 256 µg/mL | MBC [2, 7]: 361 µM | melting point: 85 °C | IC50 ([3]; Homo sapiens, HEK293, 48 h): > 142 µg/mL

CCCCCCCCCCCCNC(=O)[C@H](Cc1ccccc1)n1ccnc1 [Compound 3a]
MBC [1, 6]: > 2000 µg/mL | MBC [1, 7]: > 5000 µM | MBC [2, 8]: ≤ 16 µg/mL | MBC [2, 7]: 42 µM | melting point: 56.1 °C | IC50 [3]: < 36 µM | IC50 ([3]; Homo sapiens, HEK293, 48 h): 19 µM and 7.3 µg/mL

CCCCCCCCCCCCNC(=O)[C@H](Cc1ccccc1)n1cc[n+](Cc2ccccc2)c1 [Compound 3b]
bactericidal or bacteriostatic (MBC to MIC ratio equal to or less than four = bactericidal) [4]: true bactericidal activity | MBC [1, 6]: 128 µg/mL | MBC [1, 7]: 229 µM | MBC [2, 7]: 7 µM | melting point: 16 °C | IC50 ([3]; Homo sapiens, HEK293, 48 h): 109 µM and 61 µg/mL

CCCCCCCCCCCCNC(=O)[C@@H](Cc1ccccc1)n1cc[n+](Cc2cccc(C[n+]3ccn([C@@H](Cc4ccccc4)C(=O)NCCCCCCCCCCCC)c3)c2)c1 [Compound 3c]
bactericidal or bacteriostatic (MBC to MIC ratio equal to or less than four = bactericidal) [4]: true bactericidal activity | MBC [1, 6]: 2000 µg/mL | MBC [1, 7]: 1990 µM | MBC [2, 8]: 64 µg/mL | MBC [2, 7]: 62 µM | melting point: 60 °C | solubility [5]: solubility problems | IC50 [3]: < 36 µM | IC50 ([3]; Homo sapiens, HEK293, 48 h): 36 µM and 37 µg/mL
